Where a SMILES comes first, the peptide text is derived from it.
These compounds were tested against T1, Interleukin-23 receptor (Homo sapiens, UniProt Q5VWK5) (assay: Inhibition of interleukin-23 binding to human interleukin-23 receptor incubated for 2 hrs by competitive binding ELISA).
T1 sequence (Q5VWK5 whole entry): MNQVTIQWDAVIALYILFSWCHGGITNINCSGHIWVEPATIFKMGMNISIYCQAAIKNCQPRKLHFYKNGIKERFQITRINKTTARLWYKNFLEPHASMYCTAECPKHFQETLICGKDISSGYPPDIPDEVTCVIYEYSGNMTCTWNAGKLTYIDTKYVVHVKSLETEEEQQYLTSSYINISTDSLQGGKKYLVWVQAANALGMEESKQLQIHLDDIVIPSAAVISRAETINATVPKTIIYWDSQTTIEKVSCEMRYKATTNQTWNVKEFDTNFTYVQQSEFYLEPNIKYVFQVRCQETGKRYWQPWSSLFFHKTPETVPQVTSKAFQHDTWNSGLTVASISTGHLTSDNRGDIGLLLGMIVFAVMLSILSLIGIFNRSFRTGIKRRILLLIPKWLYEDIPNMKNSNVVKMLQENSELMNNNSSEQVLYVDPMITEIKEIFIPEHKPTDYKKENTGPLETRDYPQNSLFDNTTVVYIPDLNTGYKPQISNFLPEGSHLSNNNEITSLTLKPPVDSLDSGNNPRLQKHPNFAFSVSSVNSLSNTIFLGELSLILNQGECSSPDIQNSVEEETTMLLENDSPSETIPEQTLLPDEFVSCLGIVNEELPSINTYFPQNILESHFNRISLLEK

SMILES	IC50 [µM]
CC(=O)N[C@@H](CS)C(=O)N[C@@H](C)C(=O)N[C@@H](CC(=O)O)C(=O)N[C@@H](Cc1c[nH]c2ccccc12)C(=O)N[C@H](C(=O)N[C@@H](CS)C(=O)N[C@@H](Cc1ccc(O)cc1)C(=O)N[C@@H](Cc1c[nH]c2ccccc12)C(=O)N[C@@H](Cc1cnc[nH]1)C(=O)N[C@H](C(=O)N[C@@H](CCCCNC(=O)COCC(=O)NCCCC[C@H](NC(=O)[C@@H](NC(=O)[C@H](Cc1cnc[nH]1)NC(=O)[C@H](Cc1c[nH]c2ccccc12)NC(=O)[C@H](Cc1ccc(O)cc1)NC(=O)[C@H](CS)NC(=O)[C@@H](NC(=O)[C@H](Cc1c[nH]c2ccccc12)NC(=O)[C@H](CC(=O)O)NC(=O)[C@H](C)NC(=O)[C@H](CS)NC(C)=O)C(C)C)[C@@H](C)O)C(=O)NCC(=O)O)C(=O)NCC(=O)O)[C@@H](C)O)C(C)C	1 to 10
CC(C)[C@H](NC(=O)[C@H](Cc1c[nH]c2ccccc12)NC(=O)[C@H](CC(=O)O)NC(=O)[C@H](C)NC(=O)[C@@H](N)CS)C(=O)N[C@@H](CS)C(=O)N[C@@H](Cc1ccc(O)cc1)C(=O)N[C@@H](Cc1cccc2ccccc12)C(=O)N[C@@H](Cc1cnc[nH]1)C(=O)N[C@H](C(=O)N[C@H](Cc1ccccc1)C(=O)O)[C@@H](C)O	> 1
CC(=O)N[C@@H](CS)C(=O)N[C@@H](CCC(N)=O)C(=O)N[C@H](C(=O)N[C@@H](Cc1c[nH]c2ccccc12)C(=O)N[C@@H](CCC(N)=O)C(=O)N[C@@H](CS)C(=O)N[C@@H](Cc1ccc(O)cc1)C(=O)N[C@@H](Cc1c[nH]c2ccccc12)C(=O)N1CCC[C@H]1C(=O)N[C@@H](CCC(=O)O)C(=O)N[C@@H](CC(N)=O)C(=O)NCC(N)=O)[C@@H](C)O	> 30
CC(C)[C@H](NC(=O)[C@H](Cc1c[nH]c2ccccc12)NC(=O)[C@H](CC(=O)O)NC(=O)[C@H](C)NC(=O)[C@H](CS)NC(=O)[C@H](CO)NC(=O)CCN)C(=O)N[C@@H](CS)C(=O)N[C@@H](Cc1ccc(O)cc1)C(=O)N[C@@H](Cc1c[nH]c2ccccc12)C(=O)N[C@@H](Cc1cnc[nH]1)C(=O)N[C@H](C(=O)N[C@@H](Cc1ccccc1)C(=O)NCC(=O)O)[C@@H](C)O	> 1
CC(=O)N[C@@H](CS)C(=O)N[C@@H](CCCNC(=N)N)C(=O)N[C@@H](CC(=O)O)C(=O)N[C@@H](Cc1c[nH]c2ccccc12)C(=O)N[C@@H](CCC(N)=O)C(=O)N[C@@H](CS)C(=O)N[C@@H](Cc1ccc(O)cc1)C(=O)N[C@@H](Cc1c[nH]c2ccccc12)C(=O)N[C@@H](CCCNC(=N)N)C(=O)N[C@H](CCCCN)C(=O)N[C@@H](Cc1ccccc1)C(=O)NCC(=O)NCCOCCC(=O)N[C@H](CCCCN)C(N)=O	> 1
CC(=O)N[C@@H](CCCNC(=N)N)C(=O)N[C@@H](CCC(=O)O)C(=O)NCC(=O)N[C@H](C(=O)N[C@@H](CS)C(=O)N[C@@H](CO)C(=O)N[C@H](C(=O)N[C@@H](Cc1c[nH]c2ccccc12)C(=O)N[C@@H](CCCCN)C(=O)N[C@@H](CS)C(=O)N[C@@H](Cc1ccc(O)cc1)C(=O)N[C@@H](Cc1c[nH]c2ccccc12)C(=O)N[C@@H](Cc1cnc[nH]1)C(=O)N[C@H](C(=O)N[C@@H](Cc1ccccc1)C(=O)NCC(N)=O)[C@@H](C)O)[C@@H](C)O)[C@@H](C)O (Ac-REGTCSTWKCYWHTFG-NH2)	0.5 to 1
CC(=O)N[C@@H](CS)C(=O)N[C@@H](C)C(=O)N[C@@H](CC(=O)O)C(=O)N[C@@H](Cc1c[nH]c2ccccc12)C(=O)N[C@H](C(=O)N[C@@H](CS)C(=O)N[C@@H](Cc1ccc(O)cc1)C(=O)N[C@@H](Cc1ccc(C(N)=O)cc1)C(=O)N[C@@H](CCCN)C(=O)N[C@@H](CN)C(=O)N[C@@H](Cc1ccccc1)C(=O)NCC(=O)NCCOCC(=O)N[C@H](CCCCN)C(N)=O)C(C)C	6
CC(=O)N[C@@H](CS)C(=O)N[C@@H](C)C(=O)N[C@@H](CC(=O)O)C(=O)N[C@@H](Cc1c[nH]c2ccccc12)C(=O)N[C@H](C(=O)N[C@@H](CS)C(=O)N[C@@H](Cc1ccc(O)cc1)C(=O)N[C@H](CC(=O)N[C@@H](CCCN)C(=O)N[C@@H](CN)C(=O)N[C@@H](Cc1ccccc1)C(=O)NCC(=O)NCCOCC(=O)N[C@H](CCCCN)C(N)=O)Cc1c[nH]c2ccccc12)C(C)C	6
CC(=O)N[C@@H](CS)C(=O)N[C@@H](CCCNC(=N)N)C(=O)N[C@@H](CC(=O)O)C(=O)N[C@@H](Cc1c[nH]c2ccccc12)C(=O)N[C@@H](CCC(N)=O)C(=O)N[C@@H](CS)C(=O)N[C@@H](Cc1ccc(O)cc1)C(=O)N[C@@H](Cc1c[nH]c2ccccc12)C(=O)N[C@H](CCCNC(=N)N)C(=O)N[C@@H](CCCCN)C(=O)N[C@@H](Cc1ccccc1)C(=O)NCC(=O)NCCOCCC(=O)N[C@H](CCCCN)C(N)=O	> 1
CC(=O)NC1C/C=C\CCCC(C(=O)N[C@@H](Cc2ccc(O)cc2)C(=O)N[C@@H](Cc2c[nH]c3ccccc23)C(=O)N[C@@H](CCCNC(=N)N)C(=O)N[C@@H](CCCCN)C(=O)N[C@@H](Cc2ccccc2)C(=O)NCC(=O)NCCOCC(=O)N[C@H](CCCCN)C(N)=O)NC(=O)[C@H](CCC(N)=O)NC(=O)[C@H](Cc2c[nH]c3ccccc23)NC(=O)[C@H]([C@@H](C)O)NC(=O)[C@H](CCCNC(=N)N)NC1=O (some centres undefined)	1 to 10
CC(=O)N[C@@H](CS)C(=O)N[C@@H](C)C(=O)N[C@@H](CC(=O)O)C(=O)N[C@@H](Cc1c[nH]c2ccccc12)C(=O)N[C@H](C(=O)N[C@@H](CS)C(=O)N[C@@H](Cc1ccc(O)cc1)C(=O)N[C@@H](Cc1c[nH]c2ccccc12)C(=O)N[C@@H](Cc1cnc[nH]1)C(=O)N[C@H](C(=O)N[C@@H](Cc1ccccc1)C(=O)NCC(N)=O)[C@@H](C)O)C(C)C	> 1
CC(=O)N[C@H](C(=O)N[C@@H](CCC(N)=O)C(=O)N[C@H](C(=O)N[C@@H](Cc1c[nH]c2ccccc12)C(=O)N[C@@H](CCC(N)=O)C(=O)N[C@H](C(=O)N[C@@H](Cc1ccc(Cl)c(Cl)c1)C(=O)N[C@@H](Cc1ccc2ccccc2c1)C(=O)N[C@@](C)(CCCN)C(=O)N[C@@H](CCC(=O)O)C(=O)N[C@@H](CC(N)=O)C(=O)NCC(N)=O)C(C)(C)S)[C@@H](C)O)C(C)(C)S	0.1 to 1
CC(=O)N[C@@H](CS)C(=O)N[C@@H](CCC(N)=O)C(=O)N[C@H](C(=O)N[C@@H](Cc1c[nH]c2ccccc12)C(=O)N[C@@H](CCC(N)=O)C(=O)N[C@@H](CS)C(=O)N1Cc2ccccc2C[C@H]1C(=O)N[C@@H](Cc1c[nH]c2ccccc12)C(=O)N[C@@H](CCC(C)C)C(=O)N[C@@H](CCC(=O)O)C(=O)N[C@@H](CC(N)=O)C(=O)NCC(N)=O)[C@@H](C)O	> 30
CC(C)[C@H](NC(=O)[C@H](Cc1c[nH]c2ccccc12)NC(=O)[C@H](CC(=O)O)NC(=O)[C@H](C)NC(=O)[C@@H](N)CS)C(=O)N[C@@H](CS)C(=O)N[C@@H](Cc1ccc(O)cc1)C(=O)N[C@@H](Cc1c[nH]c2ccccc12)C(=O)N[C@@H](Cc1cnc[nH]1)C(=O)N[C@H](C(=O)N[C@@H](Cc1ccccc1)C(=O)NCC(=O)N[C@@H](CCCCNC(=O)COCC(=O)NCCCC[C@H](NC(=O)CNC(=O)[C@H](Cc1ccccc1)NC(=O)[C@@H](NC(=O)[C@H](Cc1cnc[nH]1)NC(=O)[C@H](Cc1c[nH]c2ccccc12)NC(=O)[C@H](Cc1ccc(O)cc1)NC(=O)[C@H](CS)NC(=O)[C@@H](NC(=O)[C@H](Cc1c[nH]c2ccccc12)NC(=O)[C@H](CC(=O)O)NC(=O)[C@H](C)NC(=O)[C@@H](N)CS)C(C)C)[C@@H](C)O)C(=O)O)C(=O)O)[C@@H](C)O	1 to 10
CC(=O)N[C@@H](C)C(=O)N[C@H](C(=O)N[C@@H](CC(=O)O)C(=O)N[C@@H](Cc1c[nH]c2ccccc12)C(=O)N[C@H](C(=O)N[C@H](C(=O)N[C@@H](Cc1ccc(O)cc1)C(=O)N[C@@H](Cc1c[nH]c2ccccc12)C(=O)N[C@@H](CCCNC(=N)N)C(=O)N[C@@H](CCCCN)C(=O)N[C@@H](Cc1ccccc1)C(=O)NCC(=O)NCCOCC(=O)N[C@H](CCCCN)C(N)=O)C(C)(C)S)C(C)C)C(C)(C)S	> 30
CC1CSC[C@@H](C(=O)N[C@@H](Cc2ccc(O)cc2)C(=O)N[C@@H](Cc2c[nH]c3ccccc23)C(=O)N[C@@H](CCCNC(=N)N)C(=O)N[C@@H](CCC(=O)O)C(=O)N[C@@H](CC(N)=O)C(=O)NCC(=O)NCCOCC(=O)N[C@H](CCCCN)C(N)=O)NC(=O)[C@H](CCC(N)=O)NC(=O)[C@H](Cc2c[nH]c3ccccc23)NC(=O)[C@H](CC(=O)O)NC(=O)[C@H](CCC(N)=O)NC1=O (some centres undefined)	6
CC(=O)N[C@@H](CS)C(=O)N[C@H](C(=O)N[C@H](C(=O)N[C@@H](Cc1c[nH]c2ccccc12)C(=O)N[C@@H](CCC(=O)O)C(=O)N[C@@H](CS)C(=O)N[C@@H](Cc1ccc(O)cc1)C(=O)N[C@@H](Cc1c[nH]c2ccccc12)C(=O)N[C@@H](Cc1cnc[nH]1)C(=O)N[C@@H](CCC(=O)O)C(=O)N[C@@H](Cc1ccc(O)cc1)C(=O)NCC(N)=O)[C@@H](C)O)[C@@H](C)O (Ac-CTTWECYWHEYG-NH2)	< 0.5
CC(=O)N[C@@H](CS)C(=O)N[C@@H](C)C(=O)N[C@@H](CC(=O)O)C(=O)N[C@@H](Cc1c[nH]c2ccccc12)C(=O)N[C@H](C(=O)N[C@@H](CS)C(=O)N[C@@H](Cc1ccc(O)cc1)C(=O)N[C@@H](Cc1c[nH]c2ccccc12)C(N)=O)C(C)C	> 30
CCCCCCCCCCCCCCCC(=O)NCCCC[C@H](NC(=O)[C@H](CCCN)NC(=O)[C@H](Cc1c[nH]c2ccccc12)NC(=O)[C@H](Cc1ccc(O)cc1)NC(=O)[C@H](CS)NC(=O)[C@H](CCC(N)=O)NC(=O)[C@H](Cc1c[nH]c2ccccc12)NC(=O)[C@@H](NC(=O)[C@H](CCC(N)=O)NC(=O)[C@H](CS)NC(C)=O)[C@@H](C)O)C(=O)N[C@@H](CC(N)=O)C(=O)NCC(N)=O	> 6
